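Cultured in 96-well plates, cells were exposed to test compound for 48 hours across five concentrations. Here, GI50 denotes the concentration required for 50% inhibition of growth. TGI marks complete inhibition of growth.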
How the values were obtained:
Test in all cases: NCI anticancer screen, dose series, 48 h
[1] = system: 786-0 renal
[2] = system: A498 renal
[3] = system: A549 NSCLC
[4] = system: ACHN renal
[5] = system: BT-549 breast
[6] = system: CAKI-1 renal
[7] = system: CCRF-CEM leukemia
[8] = system: COLO 205 colon
[9] = system: DU-145 prostate
[10] = system: EKVX NSCLC
[11] = system: HCC-2998 colon
[12] = system: HCT-116 colon
[13] = system: HCT-15 colon
[14] = system: HL-60(TB) leukemia
[15] = system: HOP-62 NSCLC
[16] = system: HOP-92 NSCLC
[17] = system: HS 578T breast
[18] = system: HT29 colon
[19] = system: IGROV1 ovarian
[20] = system: K-562 leukemia
[21] = system: KM12 colon
[22] = system: LOX IMVI melanoma
[23] = system: M14 melanoma
[24] = system: MALME-3M melanoma
[25] = system: MCF7 breast
[26] = system: MDA-MB-231 breast
[27] = system: MDA-MB-435
[28] = system: MDA-MB-468 breast
[29] = system: MOLT-4 leukemia
[30] = system: NCI-H226 lung
[31] = system: NCI-H23 lung
[32] = system: NCI-H460 lung
[33] = system: NCI-H522 lung
[34] = system: NCI/ADR-RES ovarian
[35] = system: OVCAR-3 ovarian
[36] = system: OVCAR-4 ovarian
[37] = system: OVCAR-5 ovarian
[38] = system: OVCAR-8 ovarian
[39] = system: PC-3 prostate
[40] = system: RPMI-8226 leukemia
[41] = system: RXF 393 renal
[42] = system: SF-268 CNS
[43] = system: SF-295 CNS
[44] = system: SF-539 CNS
[45] = system: SK-MEL-2 melanoma
[46] = system: SK-MEL-28 melanoma
[47] = system: SK-MEL-5 melanoma
[48] = system: SK-OV-3 ovarian
[49] = system: SN12C renal
[50] = system: SNB-19 CNS
[51] = system: SNB-75 CNS
[52] = system: SR leukemia
[53] = system: SW-620 colon
[54] = system: T-47D breast
[55] = system: TK-10 renal
[56] = system: U251 CNS
[57] = system: UACC-257 melanoma
[58] = system: UACC-62 melanoma
[59] = system: UO-31 renal

Structure (SMILES): COc1ccc(C(=O)COc2ccc(NC(=O)Nc3ccc(Cl)c(C(F)(F)F)c3)cc2)cc1
- GI50 [1]: 4.57 µM
- TGI [1]: 24.5 µM
- GI50 [2]: 2.74 µM
- TGI [2]: 9.86 µM
- GI50 [3]: 3.2 µM
- TGI [3]: > 100 µM
- GI50 [4]: 3.35 µM
- TGI [4]: > 100 µM
- GI50 [5]: 4.38 µM
- TGI [5]: 40.8 µM
- GI50 [6]: 4.36 µM
- TGI [6]: > 100 µM
- GI50 [7]: 3.71 µM
- TGI [7]: > 100 µM
- GI50 [8]: 3.08 µM
- TGI [8]: > 100 µM
- GI50 [9]: 5.78 µM
- TGI [9]: > 100 µM
- GI50 [10]: 3.15 µM
- TGI [10]: 16.6 µM
- GI50 [11]: 3.8 µM
- TGI [11]: 34.2 µM
- GI50 [12]: 3.87 µM
- TGI [12]: > 100 µM
- GI50 [13]: 3.09 µM
- TGI [13]: > 100 µM
- GI50 [14]: 3.09 µM
- TGI [14]: 22.7 µM
- GI50 [15]: 6.69 µM
- TGI [15]: 96.4 µM
- GI50 [16]: 3.08 µM
- TGI [16]: 10 µM
- GI50 [17]: 2.89 µM
- TGI [17]: 9.97 µM
- GI50 [18]: 4.49 µM
- TGI [18]: > 100 µM
- GI50 [19]: 6 µM
- TGI [19]: > 100 µM
- GI50 [20]: 4.92 µM
- TGI [20]: > 100 µM
- GI50 [21]: 2.88 µM
- TGI [21]: 8.71 µM
- GI50 [22]: 3.2 µM
- TGI [22]: > 100 µM
- GI50 [23]: 2.72 µM
- TGI [23]: > 100 µM
- GI50 [24]: 2.84 µM
- TGI [24]: 18.2 µM
- GI50 [25]: 2.6 µM
- TGI [25]: > 100 µM
- GI50 [26]: 3.81 µM
- TGI [26]: 26.1 µM
- GI50 [27]: 3.63 µM
- TGI [27]: > 100 µM
- GI50 [28]: 2.8 µM
- TGI [28]: 8.67 µM
- GI50 [29]: 2.84 µM
- TGI [29]: > 100 µM
- GI50 [30]: 3.61 µM
- TGI [30]: 21 µM
- GI50 [31]: 4.52 µM
- TGI [31]: > 100 µM
- GI50 [32]: 3.34 µM
- TGI [32]: > 100 µM
- GI50 [33]: 2.96 µM
- TGI [33]: > 100 µM
- GI50 [34]: 3.69 µM
- TGI [34]: > 100 µM
- GI50 [35]: 3.3 µM
- TGI [35]: > 100 µM
- GI50 [36]: 2.87 µM
- TGI [36]: 17.9 µM
- GI50 [37]: 5.24 µM
- TGI [37]: > 100 µM
- GI50 [38]: 4.21 µM
- TGI [38]: > 100 µM
- GI50 [39]: 3.08 µM
- TGI [39]: > 100 µM
- GI50 [40]: 3.45 µM
- TGI [40]: > 100 µM
- GI50 [41]: 4.29 µM
- TGI [41]: 15.3 µM
- GI50 [42]: 4.04 µM
- TGI [42]: > 100 µM
- GI50 [43]: 3.35 µM
- TGI [43]: 25.9 µM
- GI50 [44]: 4.12 µM
- TGI [44]: 26.4 µM
- GI50 [45]: 2.86 µM
- TGI [45]: 34.4 µM
- GI50 [46]: 3.39 µM
- TGI [46]: 33.9 µM
- GI50 [47]: 3.14 µM
- TGI [47]: 19.7 µM
- GI50 [48]: 8.07 µM
- TGI [48]: > 100 µM
- GI50 [49]: 4.8 µM
- TGI [49]: > 100 µM
- GI50 [50]: 3.86 µM
- TGI [50]: 22.7 µM
- GI50 [51]: 1.67 µM
- TGI [51]: 14.3 µM
- GI50 [52]: 3.13 µM
- TGI [52]: > 100 µM
- GI50 [53]: 5.3 µM
- TGI [53]: > 100 µM
- GI50 [54]: 3.06 µM
- TGI [54]: 92.3 µM
- GI50 [55]: 7.9 µM
- TGI [55]: > 100 µM
- GI50 [56]: 3.71 µM
- TGI [56]: 26.1 µM
- GI50 [57]: 2.95 µM
- TGI [57]: > 100 µM
- GI50 [58]: 2.79 µM
- TGI [58]: 9.38 µM
- GI50 [59]: 3.75 µM
- TGI [59]: > 100 µM

From PubChem BioAssay (NCI)
